Test [1] has as its system H3225. Nature of the test: MTT cell viability, H3225. The class given is cell-based. The note with it: 96 h; Adenocarcinoma lung cell line H3225; 4 days incubation. The protocol:
(§1) The ability of the flurbiprofen analog compounds of the invention to inhibit cancer cell growth and survival (viability) in a variety of cancer lines was examined in a standard MTT assay for cell viability, as detailed in Example 2.
(§2) The studies reported in Tables 1-3 above were carried out by incubating the cells in the test compound for four days, under standard cell-culture conditions, and measuring cell survival on day 5 (see Example 2).
(§3) Cell growth and survival following treatment with N—[(S)-2-Fluoro-α-methyl-4-biphenylacetyl]-[L-(4-phenylphenyl)alanine]-N-(2,2,6,6-tetramethyl-4-piperidinyl)amide (GCBH-110=B1031; (S)-Fmba-L-Bip-Atmp) were measured by a rapid colorimetric assay based on the tetrazolium salt MTT (3-(4,5-dimethylthiazol-2-yl)-2,5-diphenyl tetrazolium bromide) (Mosmann, J. Immunol. Methods 65: 55-63, 1983, with minor modifications).
(§4) Briefly, approximately 1,000-5,000 cancer cells from 15 different cancer cells lines were plated in 100 μL of growth medium in 96-well flat-bottomed microtiter plates. Cells were incubated overnight to allow recovery. Compounds to be tested were added to the cells in triplicate in a range of concentrations and the cells were incubated at 37° C., 5% CO2, with 100% humidity. Control cells were treated in the same way without antagonists. […] Absorbance was immediately determined using a scanning multiwell plate reader.

The test system of test [2] is CaLu6. Nature of the test: MTT cell viability, CaLu6. The following applies: Homo sapiens, Calu-6, 96 h; Adenocarcinoma lung cell line CaLu6; 4 days incubation. The class given is cell-based. The protocol: as §1, §2, §3, §4
In test [3] the test system is H661. Nature of the test: MTT cell viability, H661. The class given is cell-based. The following applies: Homo sapiens, NCI-H661, 96 h; Large Cell lung cell line H661; 4 days incubation. The protocol:
as §1, §2, §3, §4

For test [4], the system named is H157. Nature of the test: MTT cell viability, H157. It counts as cell-based. The following applies: Homo sapiens, NCI-H157, 96 h; Squamous lung cell line H157; 4 days incubation. The protocol:
as §1, §2, §3, §4

For test [5], the system named is H446. Nature of the test: MTT cell viability, H446. It counts as cell-based. The following applies: Homo sapiens, NCI-H446, 96 h; SCLC lung cell line H446; 4 days incubation. The protocol:
as §1, §2, §3, §4

The test system of test [6] is Aspc-1. Nature of the test: MTT cell viability, Aspc-1. It counts as cell-based. The following applies: Homo sapiens, ASPC1, 96 h; Pancreatic cancer cells Aspc-1; 4 days incubation.
Description: as §1
(§5) Similar results were obtained for the effect of the B1031 compound on the 14 pancreatic tumor cells lines shown in Table 3 below, where the dose dependent effect of the compound on survival of the pancreatic cancer cell lines is shown in FIG. 5.
as §2, §3
(§6) Briefly, approximately 1,000-5,000 cancer cells from 15 different cancer cells lines were plated in 100 μL of growth medium in 96-well flat-bottomed microtiter plates. Cells were incubated overnight to allow recovery. […] Absorbance was immediately determined using a scanning multiwell plate reader.

Test [7] relates to Panc-203. Nature of the test: MTT cell viability, Panc-203. It counts as cell-based. The following applies: Homo sapiens, Panc203, 96 h; Pancreatic cancer cells Panc-203; 4 days incubation.
Description: as §1, §5, §2, §3, §6

Test [8] concerns Panc-1005. Nature of the test: MTT cell viability, Panc-1005. It counts as cell-based. The note with it: Homo sapiens, Panc1005, 96 h; Pancreatic cancer cells Panc-1005; 4 days incubation.
Description: as §1, §5, §2, §3, §6

Test [9] relates to H2122 lung carcinoma solid tumor xenograft. Nature of the test: H2122 lung carcinoma xenograft in nude mice. The class given is in vivo, athymic nude mice. The following applies: 5 mg/kg daily intraperitoneal, from day 7 after implantation, over the 25 days of treatment, FIG. 11. As for the experimental part:
The efficacy of the treatment method was examined for both lung carcinoma-cell tumors and pancreatic-cell tumors implanted in athymic mice, according to the method detailed in Example 3. In the first study, mice injected with lung-carcinoma cells were treated, seven days after cancer-cell implantation, by daily injection of 5 mg/kg body weight of one of three different flurbiprofen analog compounds: B1005 (GCBH 104); B1020 (GCBH 108) and B1031 (GCBH 110). Tumor size was measured by calipers at the days indicated in FIG. 11, with final tumor weight and volume being determined by extracting the tumor from the sacrificed animals.
Compounds having high in vitro cytotoxic activity were tested against implanted tumors in vivo. In one study, athymic nude mice were implanted subcutaneously with suspensions of approximately 2 million H2122 lung carcinoma cells, in Matrigel suspension. On the seventh day after tumor implantation, groups of 5 mice bearing implants were injected intraperitoneally with the compounds being tested at 5 mg/kg/every day; control animals were injected with an equal volume of isotonic saline. […] Tumor size was measured with a caliper three times per week. Tumor volume was calculated by the formula: Volume (cc)=3.14×(length)×(width)^2/6
At autopsy, tumors were removed and weighed. Tumor inhibition was calculated on both weight and measurement basis.

The source of these data is patent publication US8575170B2, “Flurbiprofen analogs and methods of use in treating cancer” (The Regents of the Unversity of Colorado, a body corporate, priority 2010, dated 2013).

For the molecule `C[C@H](C(=O)N[C@@H](Cc1ccc(-c2ccccc2)cc1)C(=O)NC1CC(C)(C)NC(C)(C)C1)c1ccc(-c2ccccc2)c(F)c1` [GCBH-110, N—[(S)-2-Fluoro-α-methyl-4-biphenylacetyl]-[L-(4-phenylphenyl)alanine]-N-(2,2,6,6-tetramethyl-4-piperidinyl)amide], the IC50 (usually the concentration that inhibits the measured activity by half) in test [1] turned out to be 1100 nM; in test [2] it was 340 nM; in test [3], 350 nM; in test [4], 210 nM; in test [5], 440 nM; in test [6] it was 500 nM. For the same molecule, the IC50 in test [7] and in test [8] was 700 nM throughout. In addition, in test [9], the “inhibition of growth of the lung carcinoma cell line H2122 tumor” value turned out to be 76%.
